The text below walks through data of patent publication US5849888A, “Azoamide compound” (Wako Pure Chemical Industries, Ltd., priority 1996, dated 1998).

The conditions of data set [1]: in words, cited from earlier work; for solubility in an organic solvent: organic solvent used in solution polymerization of an oily soluble monomer.
Data set [2] is described as follows: Solubility of azoamide compound in 100 g of solvent at 25° C. (Table 1). The format is physicochemical. As to conditions: for Solubility in ethyl acetate: in 100 g of ethyl acetate; for Solubility in toluene: in 100 g of toluene. The text has this:
*^) Solubility of each azoamide compound in 100 g of the solvent at
A polymerization initiator having solubility of generally 2% or more, preferably 5% or more has high applicability, and it can be found from the above Table 1 that any of the azoamide compounds of the present invention is suitable for a polymerization reaction using an organic solvent.

A short description of data set [3]: Half-life test (thermal decomposition in ethyl benzene, 10-hour half life temperature). The following applies: 1% (w/w) solution in ethyl benzene; calculated by Arrhenius equation. The format is physicochemical. As for the experimental part: Experiment 1. Half-life test
(§1) 1 Percent (w/w) solution of each azoamide compound obtained in Examples 1 to 7 in ethyl benzene is prepared. A concentration of the azoamide compound is measured in a thermostat at pre-determined interval by 1 hour unit and a coefficient of decomposition rate constant at each temperature is obtained and then the temperature for 10 -hour half life is calculated on the basis of the coefficient by Arrhenius equation.

Data set [4] in a line: Decomposition rate constant at 110° C. (Table 3). The format is physicochemical. The protocol:
as §1
(§2) 5 ml of styrene containing a 4×10^-4 M of azoamide compound which is obtained example 1, 3, or 6 were placed in individual glass tubes. After deairing, the tubes were sealed under reduced pressure. Each tube was placed into the thermostat adjusted at 110° C. to carry out the polymerization. The tube was took out from the thermostat after predetermined time, cooled under ice water immediately to stop polymerization. The reaction solution was poured into methanol to deposit and precipitate the obtained polymer. The precipitate was recovered by filtration, and dried at 60° C. under reduced pressure for 8 hours. The weight of the polymer obtained was measured and the conversion was calculated.

The nature of data set [5]: Polymerization of styrene at 110° C. with azoamide initiator (Experiment 2). As to conditions: 4×10^-4 M initiator. As for the experimental part:
as §2

Where [6] appears, read: listed as 2,2'-azobis (N-methyl-2-methyl propionamide).

Take `CC(C)(N=NC(C)(C)C(N)=O)C(N)=O` [2,2'-azobis (2-methylpropionamide)]: in data set [1], the solubility in water entry is reported as “water-soluble” and the “solubility in an organic solvent” value was “poor soluble”.
For `CC(C)(N=NC(C)(C)C(=O)NCO)C(=O)NCO` [2,2'-azobis [2-methyl-N-(hydroxymethyl)-propionamide]], in data set [1], the solubility in water result is “water-soluble” and the “solubility in an organic solvent” value is listed as “poor soluble”.
As for `CNC(=O)C(C)(C)N=NC(C)(C)C(=O)NC` [Comparative example, 2,2'-azobis (N-methyl-2-methyl propionamide), reference compound], in data set [1], the solubility in water entry is “water-soluble” and the “solubility in an organic solvent” value is recorded as “poor soluble”. For the same compound, in data set [2], the “Solubility in ethyl acetate” value amounted to 1.2 g and the Solubility in toluene is at most 0.5 g. Besides, in data set [2] (setting [6]), the “Solubility in ethyl acetate” value is given as “low solubility” and the Solubility in toluene result was “low solubility”.
Consider `CC(C)(N=NC(C)(C)C(=O)NC1CCCCC1)C(=O)NC1CCCCC1` [Example 1, 2,2'-azobis (N-cyclohexyl-2-methyl propionamide)], for which the “temperature for 10-hour half life” value in data set [3] was 111.0 °C. The decomposition rate constant in data set [4] is 1.72e-05 s⁻¹. Further, the “Solubility in ethyl acetate” value in data set [2] turned out to be 3.5 g. In data set [2], this compound came in with a Solubility in toluene of 5.5 g. Besides, the Conversion in data set [5] (polymerization time 1 h) is 8.7%; in data set [5] (polymerization time 2 h) it was 20.5%; in data set [5] (polymerization time 3 h) it was 30.8%; in data set [5] (polymerization time 4 h) it was 41.2%; in data set [5] (polymerization time 6 h), 62.5%; in data set [5] (polymerization time 8 h), 81.0%.
With `CC(C)CNC(=O)C(C)(C)N=NC(C)(C)C(=O)NCC(C)C` [Example 2, 2,2'-azobis [N-(2-methylpropyl)-2-methylpropionamide]], the “temperature for 10-hour half life” value in data set [3] is 112.0 °C. In data set [2], the “Solubility in ethyl acetate” value worked out at 14.0 g and the Solubility in toluene was found to be 8.0 g.
`CCCCNC(=O)C(C)(C)N=NC(C)(C)C(=O)NCCCC` [Example 3, 2,2'-azobis (N-butyl-2-methyl propionamide)]: in data set [3], the “temperature for 10-hour half life” value is 110.6 °C. Moreover, the decomposition rate constant in data set [4] stood at 1.79e-05 s⁻¹. Moreover, the “Solubility in ethyl acetate” value in data set [2] is given as “easily soluble”. The Solubility in toluene result in data set [2] is “easily soluble”. Further, the Conversion stood at 9.2% in data set [5] (polymerization time 1 h); 20.8% in data set [5] (polymerization time 2 h); 30.8% in data set [5] (polymerization time 3 h); 41.0% in data set [5] (polymerization time 4 h); 61.2% in data set [5] (polymerization time 6 h); 82.9% in data set [5] (polymerization time 8 h).
Consider `CC(C)NC(=O)C(C)(C)N=NC(C)(C)C(=O)NC(C)C` [Example 4, 2,2'-azobis [N-(2-methylethyl)-2-methylpropionamide]], for which the “temperature for 10-hour half life” value in data set [3] is 111.2 °C. In addition, in data set [2], the “Solubility in ethyl acetate” value is 11.0 g and the Solubility in toluene stood at 5.0 g.
As to `CCCCCCNC(=O)C(C)(C)N=NC(C)(C)C(=O)NCCCCCC` [Example 5, 2,2'-azobis (N-hexyl-2-methyl propionamide)], the “temperature for 10-hour half life” value in data set [3] was 111.6 °C. Moreover, in data set [2], the “Solubility in ethyl acetate” value is listed as “easily soluble” and the Solubility in toluene entry is reported as “easily soluble”.
On to `CCCNC(=O)C(C)(C)N=NC(C)(C)C(=O)NCCC` [Example 6, 2,2'-azobis (N-propyl-2-methyl propionamide)], for which the “temperature for 10-hour half life” value in data set [3] was 110.8 °C. In addition, in data set [4], the decomposition rate constant worked out at 1.74e-05 s⁻¹. For the same compound, the “Solubility in ethyl acetate” value in data set [2] is listed as “easily soluble”. The Solubility in toluene entry in data set [2] is given as “easily soluble”. Moreover, the Conversion was 9.0% in data set [5] (polymerization time 1 h); 20.0% in data set [5] (polymerization time 2 h); 31.2% in data set [5] (polymerization time 3 h); 41.0% in data set [5] (polymerization time 4 h); 62.4% in data set [5] (polymerization time 6 h); 83.6% in data set [5] (polymerization time 8 h).
Turning to `CCNC(=O)C(C)(C)N=NC(C)(C)C(=O)NCC` [Example 7, 2,2'-azobis (N-ethyl-2-methyl propionamide)], in data set [3], the “temperature for 10-hour half life” value was 109.6 °C. Moreover, in data set [2], the “Solubility in ethyl acetate” value is 11.0 g and the Solubility in toluene is given as 4.0 g.
